According to ChEMBL document CHEMBL4251622, “Design, synthesis, and biological evaluation of polo-like kinase 1/eukaryotic elongation factor 2 kinase (PLK1/EEF2K) dual inhibitors for regulating breast cancer cells apoptosis and autophagy” (Eur J Med Chem, 2018):
Calls of active or inactive are those of the source. No cut-off for these calls is given here.

Legend:
[1] = tested on: BT-483; assay: Cytotoxicity against human BT-483 cells after 24 hrs by MTT assay; format: functional, cell-based; conditions: BT-483, 24 h
[2] = target: Serine/threonine-protein kinase PLK1 (Homo sapiens, UniProt P53350); assay: Inhibition of full length human PLK1 at 20 uM using casein as substrate after 40 mins in presence of [gamma-33P]-ATP by radiometric assay relative to control
Serine/threonine-protein kinase PLK1, sequence (P53350 whole entry): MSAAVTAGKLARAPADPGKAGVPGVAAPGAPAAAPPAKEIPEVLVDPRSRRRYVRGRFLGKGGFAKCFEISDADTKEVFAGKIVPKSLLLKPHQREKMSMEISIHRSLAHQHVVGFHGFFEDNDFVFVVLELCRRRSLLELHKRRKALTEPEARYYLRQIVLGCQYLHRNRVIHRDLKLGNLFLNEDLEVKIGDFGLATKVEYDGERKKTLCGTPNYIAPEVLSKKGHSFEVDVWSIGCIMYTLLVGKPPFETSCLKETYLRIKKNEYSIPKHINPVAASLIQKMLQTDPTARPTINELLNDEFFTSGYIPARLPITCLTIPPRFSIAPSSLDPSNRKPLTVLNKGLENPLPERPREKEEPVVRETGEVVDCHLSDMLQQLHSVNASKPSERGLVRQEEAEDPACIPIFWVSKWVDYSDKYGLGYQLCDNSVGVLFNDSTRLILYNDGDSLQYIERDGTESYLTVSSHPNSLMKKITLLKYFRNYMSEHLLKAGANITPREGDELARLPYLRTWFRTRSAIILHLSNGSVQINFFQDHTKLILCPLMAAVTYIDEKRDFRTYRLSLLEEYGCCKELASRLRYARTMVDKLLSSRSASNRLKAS

[3] = tested on: MCF7; assay: Cytotoxicity against human MCF7 cells after 24 hrs by MTT assay; format: functional, cell-based; conditions: MCF7, 24 h
[4] = target: T1, Eukaryotic elongation factor 2 kinase (Homo sapiens) (UniProt O00418); assay: Inhibition of GST-tagged EEF2K (unknown origin) at 20 uM using biotinylated EEF2 peptide substrate by HTRF assay relative to control
T1 sequence (whole entry): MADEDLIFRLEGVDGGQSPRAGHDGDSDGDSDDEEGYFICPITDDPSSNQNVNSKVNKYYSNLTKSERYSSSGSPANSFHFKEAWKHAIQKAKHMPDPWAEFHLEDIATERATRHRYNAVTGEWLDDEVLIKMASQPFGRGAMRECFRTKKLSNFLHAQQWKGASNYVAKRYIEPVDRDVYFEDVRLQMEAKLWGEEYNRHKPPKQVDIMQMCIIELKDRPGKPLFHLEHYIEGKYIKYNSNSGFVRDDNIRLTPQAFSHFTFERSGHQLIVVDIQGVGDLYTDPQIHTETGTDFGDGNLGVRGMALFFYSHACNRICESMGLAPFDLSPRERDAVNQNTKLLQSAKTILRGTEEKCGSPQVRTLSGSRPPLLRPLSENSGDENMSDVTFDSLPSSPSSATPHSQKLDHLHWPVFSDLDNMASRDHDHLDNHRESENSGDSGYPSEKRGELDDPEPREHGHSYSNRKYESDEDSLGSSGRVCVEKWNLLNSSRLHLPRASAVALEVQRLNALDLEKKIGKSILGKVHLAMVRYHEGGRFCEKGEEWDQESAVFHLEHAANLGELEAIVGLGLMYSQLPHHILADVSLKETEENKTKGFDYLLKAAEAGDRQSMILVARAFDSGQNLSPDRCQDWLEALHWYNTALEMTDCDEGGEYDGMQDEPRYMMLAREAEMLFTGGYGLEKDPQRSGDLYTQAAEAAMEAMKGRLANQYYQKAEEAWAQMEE

[5] = tested on: MDA-MB-468; assay: Cytotoxicity against human MDA-MB-468 cells after 24 hrs by MTT assay; format: functional, cell-based
[6] = tested on: MDA-MB-231; assay: Cytotoxicity against human MDA-MB-231 cells after 24 hrs by MTT assay; format: functional, cell-based
[7] = tested on: SK-BR-3; assay: Cytotoxicity against human SKBR3 cells after 24 hrs by MTT assay; format: functional, cell-based
[8] = tested on: ZR-75-1; assay: Cytotoxicity against human ZR-75-1 cells after 24 hrs by MTT assay; format: functional, cell-based
[9] = tested on: BT-474; assay: Cytotoxicity against human BT474 cells after 24 hrs by MTT assay; format: functional, cell-based

Structure (SMILES) | IC50 [1] | inhibition [2] | IC50 [3] | inhibition [4] | Activity [5] | Activity [6] | Activity [7] | Activity [8] | Activity [9]
CCNc1cc(-c2ccc(NC(=O)Nc3ccccc3Cl)cc2OC)ccn1 | > 30 µM | 53.6% | 9.94 µM | 6.4% | – | – | – | – | –
CCNc1cc(-c2ccc(NC(=O)Nc3ccc(OC)cc3)cc2C)ccn1 | 25.8 µM | 45.8% | 9.95 µM | 33.4% | – | – | – | – | –
CCNc1cc(-c2ccc(NC(=O)Nc3ccc(C)cc3)cc2C)ccn1 | 22 µM | 47.5% | 9.21 µM | 35.4% | – | – | – | – | –
O=C(Nc1ccc(C(F)(F)F)cc1)Nc1ccc(-c2ccnc(NCC3CC3)c2)c(C(F)(F)F)c1 | > 30 µM | 53.4% | 15.6 µM | 15.1% | – | – | – | – | –
CCCNc1cc(-c2ccc(NC(=O)Nc3ccc(C(F)(F)F)cc3)cc2C(F)(F)F)ccn1 | 18.8 µM | 51.3% | 7.68 µM | 33.3% | – | – | – | – | –
CCNc1cc(-c2ccc(NC(=O)Nc3cccc(Cl)c3)cc2OC)ccn1 | 25.3 µM | 46.4% | 7.46 µM | 30.6% | – | – | – | – | –
CCNc1cc(-c2ccc(NC(=O)Nc3cccc(Cl)c3)cc2C)ccn1 | 16.6 µM | 82.7% | 4.18 µM | 73.4% | – | – | – | – | –
CCNc1cc(-c2ccc(NC(=O)Nc3ccc(OC)cc3)cc2C(F)(F)F)ccn1 | 17.6 µM | 62.1% | 5.74 µM | 51.3% | – | – | – | – | –
CCNc1cc(-c2ccc(NC(=O)Nc3c(C)cccc3C)cc2C(F)(F)F)ccn1 | 22 µM | 59.2% | 6.95 µM | 44% | – | – | – | – | –
CCNc1cc(-c2ccc(NC(=O)Nc3ccc(C(F)(F)F)cc3)cc2C(F)(F)F)ccn1 | 16.4 µM | 82.9% | 2.39 µM | 76.3% | – | – | – | – | –
CCCNc1cc(-c2ccc(NC(=O)Nc3cccc(Cl)c3)cc2C(F)(F)F)ccn1 | 18.5 µM | 63% | 8.23 µM | 38.2% | – | – | – | – | –
CCNc1cc(-c2ccc(NC(=O)Nc3ccc(OC)cc3)cc2F)ccn1 | 19.6 µM | 47.1% | 14.1 µM | 34.4% | – | – | – | – | –
O=C(Nc1cccc(Cl)c1)Nc1ccc(-c2ccnc(NCC3CC3)c2)c(C(F)(F)F)c1 | > 30 µM | 63.8% | 17.4 µM | 27.8% | – | – | – | – | –
CCNc1cc(-c2ccc(NC(=O)Nc3c(C)cccc3C)cc2OC)ccn1 | > 30 µM | 54.4% | 9.26 µM | – | – | – | – | – | –
CCNc1cc(-c2ccc(NC(=O)Nc3ccccc3Cl)cc2C)ccn1 | > 30 µM | 49.2% | 8.35 µM | 21.7% | – | – | – | – | –
CCNc1cc(-c2ccc(NC(=O)Nc3ccc(OC)cc3)cc2OC)ccn1 | > 30 µM | 31.1% | 17.5 µM | 9% | – | – | – | – | –
CCNc1cc(-c2ccc(NC(=O)Nc3ccccc3Cl)cc2C(F)(F)F)ccn1 | 20.8 µM | 71.6% | 3.68 µM | 53.6% | – | – | – | – | –
CCNc1cc(-c2ccc(NC(=O)Nc3ccc(C)cc3)cc2C(F)(F)F)ccn1 | 27.1 µM | 42.6% | 9.47 µM | 37.9% | – | – | – | – | –
CCNc1cc(-c2ccc(NC(=O)Nc3ccc(C(F)(F)F)cc3)cc2C)ccn1 | 19.7 µM | 54.8% | 6.87 µM | 55.3% | – | – | – | – | –
CCNc1cc(-c2ccc(NC(=O)Nc3ccc(C(F)(F)F)cc3)cc2OC)ccn1 | 25.6 µM | 40.7% | 19.5 µM | 34.6% | – | – | – | – | –
CCNc1cc(-c2ccc(NC(=O)Nc3cccc4ccccc34)cc2C(F)(F)F)ccn1 | > 30 µM | 54.1% | 16.3 µM | -4.29% | – | – | – | – | –
CCNc1cc(-c2ccc(NC(=O)Nc3c(C)cccc3C)cc2C)ccn1 | > 30 µM | 42.1% | 7.92 µM | 8.7% | – | – | – | – | –
CCNc1cc(-c2ccc(NC(=O)Nc3cccc4ccccc34)cc2C)ccn1 | > 30 µM | 35.3% | 15.5 µM | – | – | – | – | – | –
CCNc1cc(-c2ccc(NC(=O)Nc3cccc(Cl)c3)cc2F)ccn1 | 18.5 µM | 72.7% | 6.94 µM | 52.5% | – | – | – | – | –
CCNc1cc(-c2ccc(NC(=O)Nc3cc(C(F)(F)F)cc(C(F)(F)F)c3)cc2C(F)(F)F)ccn1 | > 30 µM | 66.1% | 5.96 µM | 37.2% | – | – | – | – | –
CC[C@@H]1C(=O)N(C)c2cnc(Nc3ccc(C(=O)NC4CCC(N5CCN(CC6CC6)CC5)CC4)cc3OC)nc2N1C(C)C (some centres not stated) | – | – | – | – | Active | Active | Active | Active | Active
CCNc1cc(-c2ccc(NC(=O)Nc3ccc(C(F)(F)F)cc3)cc2F)ccn1 | 26.8 µM | 55.8% | 8.02 µM | 41.2% | – | – | – | – | –
